Measurements reported in the PolyMetriX glass transition set.
± gives the standard deviation of the reports.

Going from `*CC(C[N-][N+]#N)(C[N-][N+]#N)CO*` (repeat unit) to `*CCOCO*` (repeat unit), the glass transition temperature falls from -30.00 °C to -64.00 °C.

Compared with `*Oc1ccc(S(=O)(=O)c2ccc3cc(S(=O)(=O)c4ccc(Oc5ccc(-c6ccc(*)cc6)cc5)cc4)ccc3c2)cc1` (repeat unit), `*Oc1ccc(S(=O)(=O)c2ccc(Oc3ccc(/C=N/c4ccc(Oc5ccc(-c6ccc(Oc7ccc(/N=C/c8ccc(*)cc8)cc7)cc6)cc5)cc4)cc3)cc2)cc1` (repeat unit) is lower in glass transition temperature: 255.00 °C for the first, 127.00 °C for the second.

Compared with `*CC(*)(C)C(=O)OCC=C` (repeat unit), `*CC(*)(C)C(=O)OCCCCCCCCCCCCCC` (repeat unit) is lower in glass transition temperature: 94.00 °C for the first, -72.00 °C for the second.

Going from `*CC(*)C#N` (repeat unit) [Poly(acrylonitrile)] to `*CC(*)c1ccc(I)cc1` (repeat unit), the glass transition temperature rises from 110 ± 12 °C to 158.00 °C.

First: *Oc1ccc(Oc2ccc(C(=O)c3ccc(*)cc3)cc2)cc1 (repeat unit)
Second: *Oc1ccc(C(c2ccc(Oc3ccc(C(=O)c4cc(C(=O)c5ccc(*)cc5)cc(C(C)(C)C)c4)cc3)cc2)(C(F)(F)F)C(F)(F)F)cc1 (repeat unit)
The glass transition temperature of the first is lower: 146 ± 1.3 °C for the first, 181.00 °C for the second.

Going from `*CC(*)(Cl)C(=O)OCCCCCCOc1ccc(C(=O)Oc2ccc(OCCCC)cc2)cc1` (repeat unit) to `*C(=O)OCCCCCCCCCCCOC(=O)c1ccc(N2C(=O)c3ccc(*)cc3C2=O)cc1` (repeat unit), the glass transition temperature falls from 112.50 °C to 49.00 °C.

Compared with `*C(=O)Nc1ccc(Oc2ccc(N3C(=O)CC(N4C(=O)c5ccc(*)cc5C4=O)C3=O)cc2)cc1` (repeat unit), `*C(=O)N1C(=O)N(C(=O)c2ccc3c(c2)C(=O)N(c2ccc(Oc4ccc(N5C(=O)c6ccc(*)cc6C5=O)cc4)cc2)C3=O)C(C)(C)C1=O` (repeat unit) is lower in glass transition temperature: 223.00 °C for the first, 156.00 °C for the second.

Compared with `*CCN(*)C(=O)C12CC3CC(CC(C3)C1)C2` (repeat unit), `*CCN(*)C(=O)c1ccc(F)c(F)c1F` (repeat unit) is lower in glass transition temperature: 123.00 °C for the first, 102.00 °C for the second.

First: *Nc1cccc(CCc2ccc(NC(=O)c3cccc(C(*)=O)c3)cc2)c1 (repeat unit)
Second: *Oc1ccc(-c2ccc(OC(=O)c3cccc(C(*)=O)c3)cc2)cc1 (repeat unit)
The glass transition temperature of the first is higher: 203.00 °C for the first, 185.50 °C for the second.

Compared with `*c1ccc(-c2ccc3c(c2)C(CCCCCCCC)(CCCCCCCC)c2cc(*)ccc2-3)c(F)c1` (repeat unit), `*c1ccc2c(c1)C(CCCCCC)(CCCCCC)c1cc(-c3ccc4c(c3)c3cc(*)ccc3n4-c3ccc(C)cc3)ccc1-2` (repeat unit) is higher in glass transition temperature: 34.00 °C for the first, 155.00 °C for the second.

Going from `*CC(*)c1ccc(C(O)C(F)(F)F)cc1` (repeat unit) to `*CC(*)c1ccc(C(O)CCN2CCCCC2)cc1` (repeat unit), the glass transition temperature falls from 110.00 °C to 54.00 °C.

Compared with `*c1cccc(N2C(=O)c3ccc(Oc4ccc5cc(Oc6ccc7c(c6)C(=O)N(*)C7=O)ccc5c4)cc3C2=O)c1` (repeat unit), `*c1cccc(P(=O)(c2cccc(N3C(=O)c4ccc(Oc5ccc6c(c5)C(=O)N(*)C6=O)cc4C3=O)c2)c2cc(C(F)(F)F)cc(C(F)(F)F)c2)c1` (repeat unit) is lower in glass transition temperature: 230.00 °C for the first, 228.00 °C for the second.

Going from `*c1ccc(Oc2ccc(Oc3ccc(Oc4ccc(-c5nc(*)nc(-c6ccccc6)n5)cc4)cc3)cc2)cc1` (repeat unit) to `*Oc1ccc(/N=C(\C)c2ccc(Oc3ccc(C(C)(C)c4ccc(Oc5ccc(/C(C)=N/c6ccc(*)cc6)cc5)cc4)cc3)cc2)cc1` (repeat unit), the glass transition temperature falls from 203.00 °C to 141.00 °C.

Going from `*CC(*)C(=O)OCCCCOc1ccc(/N=N/c2ccc([N+](=O)[O-])cc2)cc1` (repeat unit) to `*CC(O)COC(=O)CCCCC(=O)OCC(O)COc1ccc(O*)cc1` (repeat unit), the glass transition temperature falls from 36.70 °C to 19.00 °C.

Going from `*Oc1ccc(S(=O)(=O)c2ccc(Oc3c(C)cc(C(c4cc(C)c(*)c(C)c4)(C(F)(F)F)C(F)(F)F)cc3C)cc2C(O)(C(F)(F)F)C(F)(F)F)c(C(O)(C(F)(F)F)C(F)(F)F)c1` (repeat unit) to `*Oc1ccc(-c2ccc(NC(=O)c3cc(C(=O)Nc4ccc(-c5ccc(Oc6ccc(C(c7ccc(*)cc7)(C(F)(F)F)C(F)(F)F)cc6)c(C(F)(F)F)c5)cc4)cc(C(C)(C)C)c3)cc2)cc1C(F)(F)F` (repeat unit), the glass transition temperature rises from 196.00 °C to 251.50 °C.

Going from `*Oc1cc(Oc2ccc(NC(=O)c3cc(NC(=O)C45CC6CC(CC(C6)C4)C5)cc(C(=O)Nc4ccc(*)cc4)c3)cc2)ccc1C12CC3CC(CC(C3)C1)C2` (repeat unit) to `*Oc1ccc(Oc2ccc(NC(=O)c3ccc(Oc4ccc(Oc5ccc(C(=O)Nc6ccc(*)cc6)cc5)cc4C)cc3)cc2)cc1C` (repeat unit), the glass transition temperature falls from 345.00 °C to 218.50 °C.

First: *Oc1ccc(CC(NC(=O)CCc2ccc(OC(=O)CCCCCCCCC(*)=O)cc2)C(=O)OCc2ccccc2)cc1 (repeat unit)
Second: *Oc1ccc(OC(=O)CCCCCCCCC(*)=O)cc1 (repeat unit)
The glass transition temperature of the first is lower: 42.00 °C for the first, 52.80 °C for the second.

Going from `*C(=O)Nc1ccc(C(c2ccc(NC(=O)c3ccc4c(c3)C(=O)N(c3cccc5c(N6C(=O)c7ccc(*)cc7C6=O)cccc35)C4=O)cc2)(C(F)(F)F)C(F)(F)F)cc1` (repeat unit) to `*C(=O)c1ccc2c(c1)C(=O)N(c1cccc(C(=O)c3ccccc3N3C(=O)c4ccc(*)cc4C3=O)c1)C2=O` (repeat unit), the glass transition temperature rises from 250.00 °C to 259.00 °C.

Going from `*Nc1ccc(*)cc1OC` (repeat unit) to `*CC(*)c1cc(Br)ccc1OC(C)C` (repeat unit), the glass transition temperature falls from 90.00 °C to 35.00 °C.

First: *c1ccc2c(c1)C(=O)N(c1cccc(C(F)(F)C(F)(F)C(F)(F)C(F)(F)C(F)(F)c3cccc(N4C(=O)c5ccc(C(F)(F)C(F)(F)C(F)(F)C(F)(F)C(F)(F)C(F)(F)C(*)(F)F)cc5C4=O)c3)c1)C2=O (repeat unit)
Second: *c1ccc2c(c1)C(=O)N(c1cc(C(=O)O)cc(N3C(=O)c4ccc(C(*)(C(F)(F)F)C(F)(F)F)cc4C3=O)c1)C2=O (repeat unit)
The glass transition temperature of the first is lower: 108.50 °C for the first, 366.50 °C for the second.

Going from `*OC(=O)c1ccc(C(=O)Oc2ccc3c(c2)Oc2cc(*)ccc2C32c3ccccc3-c3ccccc32)cc1` (repeat unit) to `*c1ccc(C2(c3ccc(N4C(=O)C(c5ccccc5)=C(c5ccc(C6=C(c7ccccc7)C(=O)N(*)C6=O)cc5)C4=O)cc3)c3ccccc3-c3ccccc32)cc1` (repeat unit), the glass transition temperature rises from 290.00 °C to 340.00 °C.

First: *c1c(C)cc(C(c2cccnc2)c2cc(C)c(N3C(=O)CC(Nc4ccc(Cc5ccc(NC6CC(=O)N(*)C6=O)cc5)cc4)C3=O)c(C)c2)cc1C (repeat unit)
Second: *c1ccc(C(c2ccccc2)c2ccc(N3C(=O)c4ccc(-c5ccc6c(c5)C(=O)N(*)C6=O)cc4C3=O)cc2)cc1 (repeat unit)
The glass transition temperature of the first is lower: 219.00 °C for the first, 315.00 °C for the second.

Compared with `*NCCCCCCNc1nc(*)nc(-c2ccccc2)n1` (repeat unit), `*CCCCCCNC(=O)c1ccccc1-c1ccccc1C(=O)N*` (repeat unit) is higher in glass transition temperature: 95.00 °C for the first, 122.50 °C for the second.

Compared with `*Oc1cccc(OC(=O)Oc2ccc(C(C)(C)c3ccc(OC(*)=O)cc3)cc2)c1` (repeat unit), `*O[Si](C)(Oc1ccc(C(C)(C)c2ccc(*)cc2)cc1)c1ccccc1` (repeat unit) is lower in glass transition temperature: 83.10 °C for the first, 58.00 °C for the second.

Compared with `*c1ccc(N(c2ccc(C#N)cc2)c2ccc(N3C(=O)c4ccc(Oc5ccc(C(C)(C)c6ccc(C(C)(C)c7ccc(Oc8ccc9c(c8)C(=O)N(*)C9=O)cc7)cc6)cc5)cc4C3=O)cc2)cc1` (repeat unit), `*c1ccc(N2C(=O)c3ccc(Oc4ccc(C(C)(C)c5ccc(Oc6ccc7c(c6)C(=O)N(c6ccc8[nH]c(*)nc8c6)C7=O)cc5)cc4)cc3C2=O)cc1` (repeat unit) is higher in glass transition temperature: 224.00 °C for the first, 324.00 °C for the second.

`*c1cccc(P(=O)(c2ccc(C(F)(F)F)cc2)c2cccc(-n3c(=O)c4cc5c(=O)n(*)c(=O)c5c(-c5ccccc5)c4c3=O)c2)c1` (repeat unit) and `*c1ccc(Oc2ccc(Oc3ccc(-n4c(=O)c5cc6c(=O)n(*)c(=O)c6cc5c4=O)cc3)cc2)cc1` (repeat unit) are within error of each other in glass transition temperature: 311.00 °C for the first, 292.00 ± 28 °C for the second.

Going from `*c1ccc(C(=O)Nc2ccc(-c3nnc(*)o3)cc2)c(Oc2ccccc2)c1` (repeat unit) to `*Oc1ccc(P(=O)(c2ccccc2)c2ccc(*)cc2)cc1` (repeat unit), the glass transition temperature rises from 235.00 °C to 240.00 °C.

Compared with `*CCC1C(=O)N(CCC)C(=O)C1*` (repeat unit), `*C1C2CC(CCCCCCCCC(=O)OCC)C(C2)C1*` (repeat unit) is higher in glass transition temperature: 90.40 °C for the first, 134.00 °C for the second.

`*CCCCCCCCCCCCNC(=O)c1ccc(C(=O)N*)c(Sc2ccccc2)c1` (repeat unit) and `*CCCCCCOC(=O)C(Cc1ccccc1)NC(=O)/C=C/C(=O)NC(Cc1ccccc1)C(=O)O*` (repeat unit) are the same in glass transition temperature: 92.00 °C for the first, 92.00 °C for the second.

First: *CC(*)C(=O)Oc1cc(C)cc(C)c1 (repeat unit)
Second: *CC(O)CN(*)c1cc(C)cc(C)c1 (repeat unit)
The glass transition temperature of the first is lower: 54.00 °C for the first, 80.00 °C for the second.

Compared with `*C(=O)Nc1ccc(Oc2cccc(NC(=O)c3ccc4c(c3)C(=O)N(c3ccc(-c5sc(-c6ccc(N7C(=O)c8ccc(*)cc8C7=O)cc6)c(-c6ccccc6)c5-c5ccccc5)cc3)C4=O)c2)cc1` (repeat unit), `*Oc1ccc(S(=O)(=O)c2ccc(Oc3cccc(NC(=O)c4ccc(-c5ccc(C(=O)Nc6cccc(*)c6)c(C)c5)cc4C)c3)cc2)cc1` (repeat unit) is lower in glass transition temperature: 315.00 °C for the first, 220.00 °C for the second.

Going from `*Oc1ccc(C(=O)OC(C)COC(C)COC(C)COC(=O)c2ccc(OC(=O)c3ccc(C(*)=O)cc3)cc2)cc1` (repeat unit) to `*CC(*)c1ccc(/C(Cc2ccccc2)=N/O)cc1` (repeat unit), the glass transition temperature rises from 36.00 °C to 111.00 °C.

Compared with `*O[Si](C)(C)CC[Si](*)(C)C` (repeat unit), `*O[Si](*)(C)CCCOCCOCCOCCOC` (repeat unit) is higher in glass transition temperature: -88.00 °C for the first, -64.21 °C for the second.
